Data: PubChem BioAssay (NCI)
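Values below derive from 48-hour exposures of cells grown in 96-well plates, with endpoints linearly interpolated between the two concentrations bracketing the appropriate inhibition level. GI50 is the concentration that inhibits growth by half. The concentration for full growth arrest is given as TGI.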

Legend:
Assay in all cases: DTP human tumour cell line panel, 48 h
[1] = test system: KM12 colon
[2] = test system: MALME-3M melanoma
[3] = test system: MCF7 breast
[4] = test system: MDA-MB-231 breast
[5] = test system: NCI-H460 lung
[6] = test system: PC-3 prostate
[7] = test system: SF-268 CNS
[8] = test system: SR leukemia
[9] = test system: UACC-257 melanoma
[10] = test system: UACC-62 melanoma

Compound | GI50 [1] | TGI [1] | GI50 [2] | TGI [2] | GI50 [3] | TGI [3] | GI50 [4] | TGI [4] | GI50 [5] | TGI [5] | GI50 [6] | TGI [6] | GI50 [7] | TGI [7] | GI50 [8] | TGI [8] | GI50 [9] | TGI [9] | GI50 [10] | TGI [10]
CC1(C)N=C(N)N=C(N)N1c1cccc(Br)c1 | 0.769 µM | > 100 µM | 33.2 µM | > 100 µM | 0.665 µM | > 100 µM | > 100 µM | > 100 µM | 0.435 µM | > 100 µM | 212 nM | > 100 µM | 54.1 nM | > 100 µM | 703 nM | > 100 µM | > 92.4 µM | > 100 µM | 1930 nM | > 100 µM
COc1ccc2c(c1)C(=O)c1c-2c(Nc2cccc(C(C)=O)c2)nc2ccccc12 | 27 µM | > 100 µM | 18 µM | 48.3 µM | 24 µM | > 100 µM | 3.21 µM | 12.7 µM | 23.5 µM | > 100 µM | 14300 nM | 32.5 µM | 36500 nM | > 100 µM | 21600 nM | > 100 µM | 23.9 µM | 61.7 µM | 11600 nM | 27.7 µM
COCc1c(-c2ccc(NC(=O)Nc3cc(C(F)(F)F)ccc3F)c(F)c2)c2c(N)ncnn2c1CN1CCOCC1 | 0.041 µM | 5.43 µM | 2.72 µM | > 10 µM | 2.2 µM | 8.23 µM | 1.91 µM | > 10 µM | 2.24 µM | 9.74 µM | 2880 nM | > 10 µM | 1130 nM | 5.2 µM | 398 nM | 3.9 µM | 3.43 µM | > 10 µM | 1340 nM | > 10 µM
C[C@@H](Oc1cc(-n2cnc3ccc(OC[C@@H](O)CO)cc32)sc1C(N)=O)c1ccccc1Cl | 0.0641 µM | > 25 µM | 7.14 µM | > 25 µM | 0.025 µM | > 25 µM | 0.416 µM | > 25 µM | 0.227 µM | > 25 µM | 126 nM | > 25 µM | 164 nM | > 25 µM | 74.3 nM |  | 0.291 µM | > 25 µM | 107 nM | > 25 µM
O=C(O[C@H]1CCN2C[C@H]3C[C@H](CN4C(=O)CCC[C@H]34)[C@@H]2C1)c1ccc(O)cc1 |  | > 100 µM |  | > 100 µM |  | > 100 µM |  | > 100 µM |  | > 100 µM |  | > 100 µM |  | > 100 µM |  | > 100 µM |  | > 100 µM |  | > 100 µM
Cc1ccc(S(=O)(=O)Nc2ccc(-c3cc(-c4cccc(F)c4)c(C#N)c(N)n3)cc2)cc1 | 3.1 µM | 10.2 µM | 1.61 µM | 3.25 µM | 2.32 µM | 10 µM | 1.95 µM | 4.6 µM | 3.53 µM | 12.6 µM | 2190 nM | 7.56 µM | 2970 nM | 12.8 µM | 2700 nM | 10.5 µM | 1.93 µM | 4.24 µM | 1520 nM | 3.44 µM
Nc1ncnc2c1ccn2[C@@H]1O[C@H]([C@H](O)c2ccc(Cl)c(F)c2)[C@@H](O)[C@H]1O | > 100 µM | > 100 µM | > 100 µM | > 100 µM | 50.2 µM | > 100 µM | > 100 µM | > 100 µM | > 100 µM | > 100 µM | > 100000 nM | > 100 µM | > 100000 nM | > 100 µM | > 100000 nM | > 100 µM | > 100 µM | > 100 µM | > 100000 nM | > 100 µM
O=C(/C=C/OC(=O)c1cccc(Cl)c1)c1ccc(Cl)cc1 | > 74.6 µM | > 100 µM | 2.32 µM | 39 µM | 48.7 µM | > 100 µM | 52.2 µM | > 100 µM | > 100 µM | > 100 µM | 30700 nM | > 95.9 µM | 41900 nM | > 100 µM | 22900 nM | > 92 µM | 97.6 µM | > 100 µM | > 80800 nM | > 100 µM
O=C(O)Cc1cccc2c(=O)c3cccc([N+](=O)[O-])c3oc12 |  | > 100 µM |  | > 100 µM |  | > 100 µM |  | > 100 µM |  | > 100 µM |  | > 100 µM |  | > 100 µM |  | > 100 µM |  | > 100 µM |  | > 100 µM
C[CH2][Sn]([CH2]C)([O]C(=O)c1ccc(OC)c(OC)c1OC)[O]C(=O)c1ccc(OC)c(OC)c1OC | > 100 µM | > 100 µM | 21.2 µM | 50.6 µM | 24.7 µM | 49.2 µM | 59.1 µM | > 100 µM | > 100 µM | > 100 µM | > 100000 nM | > 100 µM | 28000 nM | > 46.4 µM | 48000 nM | > 100 µM | > 78.9 µM | > 100 µM | 42600 nM | > 100 µM
C/C(=N/Nc1nc(C)cc(=O)[nH]1)C(=O)O |  | > 100 µM |  | > 100 µM |  | > 100 µM |  | > 100 µM |  | > 100 µM |  | > 100 µM |  | > 100 µM |  | > 100 µM |  | > 100 µM |  | > 100 µM
